Assays:
PTP1B = target: T1, PTP1B (Homo sapiens, UniProt P18031); assay: In vitro PTPase assay, GST/PTP1B; type: biochemical; conditions: 0.1 to 1 μg/ml
T1 construct: purchased Upstate Biotechnology Inc. (Lake Placid, N.Y.)
Description: In vitro PTPase activities were measured using the commercial protein tyrosine phosphatase assay kit (Upstate Biotechnology, Inc. (“UBI”)) following established procedure known to one of skill in the art. This assay measures the in vitro dephosphorylation of a synthetic phosphotyrosine peptide of the sequence Arg-Arg-Leu-Ile-Glu-Asp-Ala-Gle-T- -yr-Ala-Ala-Arg-Gly, wherein the tyrosine is phosphorylated (SEQ ID NO: 3). Briefly, 0.01 µg of GST/PTPase fusion proteins was incubated in 50 µl of Tris buffer (10 mM Tris, pH 7.4) containing different concentrations of inhibitors or chemicals (0-1,000 µg/ml) at 22° C. for 10 minutes, followed by addition of 0.2 mM of the phosphotyrosine peptide and incubation at 22° C. for 18 hours. 100 µl of Malachite Green solution was added and incubated for 5 minutes, and the absorbance at 660 nm was measured after 5 minutes.
In vitro PTPase assays were used to determine the effects of levamisole (Sigma), pentamidine (American Pharmaceutical Partners, Inc.), and ketoconazole (Sigma) on recombinant PTPases, following established procedures (Pathak et al., J. Imumol. 167, 3391 (2001); Pathak et al., Leukemia 16, 2285 (2002), Yi et al., J. Immunol. 169, 5978 (2002)) using a synthetic phosphotyrosine peptide or DiFMUP as the substrate as detailed above in section I.A.2.

NB4 cells [1] = assay: NB4 differentiation (NBT reduction, CD11b); type: cell-based, human; conditions: 6 days with drug (10 or 100 μg/ml), washed, 6 days without
Description: Differentiation of AML cell lines was assessed by their ability to produce superoxide as measured by reduction of NBT to formazan and by analysis of expression of CD11b surface marker by flow cytometry. For NBT reduction, each cell suspension was mixed with an equal volume of solution containing 1 mg/ml of NBT (Sigma) and 2.5 µg/ml of TPA for 30 minutes at 37° C. After incubation, cells containing the purple formazan deposits and cells devoid of NBT-reducing activity (white cells) in each sample were determined by counting 200 cells under microscope. Data is expressed as a percentage based on the following ratio: purple cells/purple+white cells. For analysis of cell surface antigens, cells were exposed to phycoerythrin (PE)-conjugated murine anti-human CD11b (DAKO Corp., Carpinteria, Calif.). Analysis of fluorescence was performed on a FACScan flow cytometer (Beckton Dickinson, Mountain View, Calif.).

NB4 cells [2] = assay: NB4 cell proliferation, MTT assay; type: cell-based, human; conditions: 12.5-400 μg/ml
Description: The NB4 cell line (Lanotte et al., Blood 77, 1080 (1991)) was a gift from Dr. Dan Lindner of the Cleveland Clinic Foundation. […] and U937 cell lines were purchased from American Type Culture Collection (Rockville, Md.). These human […] cell lines were maintained in RPMI 1640 medium supplemented with 10% fetal calf serum (FCS). For cell proliferation assays, cells were cultured at 37° C. in 10% FCS medium containing various amounts of sodium stibogluconate for 6 days. The cell numbers in the cultures were determined by an MTT assay as described previously in Mosmann, J. Immunol. Methods 65, 55 (1983).

U266 cells = assay: U266 multiple myeloma cell growth, MTT assay; type: cell-based, human; conditions: day 6
Description: (§1) For cell proliferation assays, cells were grown in 10% FCS culture medium containing various amounts of IFNs and/or sodium stibogluconate in 96 well plates and cultured at 37° C. for 3 or 6 days as indicated. The numbers of viable cells in proliferation assays were determined by MTT assays as described in Phatak et al., J. Immunol. 167, 3391 (2001).

WM35 cells = assay: WM35 melanoma cell growth; type: cell-based, human
Description: as §1

C42 cells = assay: C42 prostate cancer cell growth; type: cell-based, human
Description: as §1

intracellular Flag-PRL-3 = target: T2, intracellular Flag-PRL-3 (Homo sapiens, UniProt O75365); assay: Immunocomplex PTPase assay, Flag-PRL-3 NIH3T3 transfectants; type: cell-based; conditions: cells treated 5 min
T2 construct: expressed in transfected cells; host or cells: NIH3T3 (pBabepuro, puromycin-selected)
Description: Immunocomplex PTPase assays were performed to assess the effects of sodium stibogluconate on intracellular PTPases. Cells were untreated or treated with sodium stibogluconate for 5 minutes, washed with fresh medium and then lysed in cold lysis buffer (50 mM Tris, pH 7.4; 150 mM NaCl; 1% NP40; 2 mM PMSF; 20 μg/ml of Aprotinin). The lysates were incubated with an anti-Flag antibody in immunoprecipitation assays. The immunocomplexes were collected with protein G sepharose beads (Pharmacia) and washed in cold lysis buffer for 4 times. […] C. for 18 hrs. 100 µL of malachite green solution (UBI) was added to each reaction prior to measurement of OD660 to quantify the amounts of free phosphate cleaved by the PTPases from the peptide substrate (Pathak et al., J. Imumol. 167, 3391 (2001)). The remaining 10% contents of individual samples were analyzed by SDS-PAGE/Western blotting to quantify the relative amounts of the phosphatase proteins. […]
The effects of sodium stibogluconate on intracellular PTPases were assessed using NIH3T3 or WM9 transfectants. […]

DU145R cells = assay: DU145R cell growth, MTT assay; type: cell-based, human; conditions: day 6 culture
Description: DU145 cells were cultured in the presence of sodium stibogluconate (100 µg/ml) in 48 well plates for 3 weeks. Cells from a well containing a single colony were transferred to flasks, cultured in sodium stibogluconate-free medium for 3 weeks and used as DU145R cells for further characterization. Growth of DU145R cells in the absence or presence of sodium stibogluconate in day 6 culture was determined by MTT assays. cDNAs of the coding region of PRLs were derived by RT-PCR from DU145 and DU145R cells and sequenced using primers described below.

T1 sequence (P18031 whole entry, species assumed): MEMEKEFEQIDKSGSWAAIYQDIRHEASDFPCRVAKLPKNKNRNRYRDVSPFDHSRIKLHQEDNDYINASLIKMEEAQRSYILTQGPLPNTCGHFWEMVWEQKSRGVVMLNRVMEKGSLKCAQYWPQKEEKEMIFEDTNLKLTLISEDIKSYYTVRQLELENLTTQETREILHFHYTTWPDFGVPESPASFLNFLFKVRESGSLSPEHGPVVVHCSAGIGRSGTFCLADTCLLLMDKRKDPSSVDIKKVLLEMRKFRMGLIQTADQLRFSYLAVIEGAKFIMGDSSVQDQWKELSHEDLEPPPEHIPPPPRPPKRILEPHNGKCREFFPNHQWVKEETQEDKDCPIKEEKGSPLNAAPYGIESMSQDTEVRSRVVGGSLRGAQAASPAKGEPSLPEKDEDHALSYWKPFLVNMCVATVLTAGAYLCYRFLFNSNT
T2 sequence (O75365 whole entry): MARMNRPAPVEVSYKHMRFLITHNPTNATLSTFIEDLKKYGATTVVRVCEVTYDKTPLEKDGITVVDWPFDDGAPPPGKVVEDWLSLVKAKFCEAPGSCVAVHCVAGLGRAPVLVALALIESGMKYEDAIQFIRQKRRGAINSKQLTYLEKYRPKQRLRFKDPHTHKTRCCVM

With `O.O.O.O.O.O.O.O.O.O=C([O-])[C@@H]1[O][Sb]2([O-])([O][Sb]34([OH])[O][C@H]([C@H](O)CO)[C@H]([O]3)[C@H](C(=O)[O-])[O]4)[O][C@H]([C@H](O)CO)[C@@H]1[O]2.[Na+].[Na+].[Na+]` [sodium stibogluconate] the “inhibition of PTP1B activity” value (PTP1B) was “only modestly effective”, the “reversal of NB4 differentiation after drug removal” value (NB4 cells [1]) was “not reversed” and the “proliferation of NB4 cells” value (NB4 cells [2]) was “markedly inhibited”. The “growth inhibition of U266 cells by the drug by itself” value (U266 cells) was “substantial growth inhibition activity”, the “effect on WM35 melanoma cell line” value (WM35 cells) was “minimally affected” and the “response of C42 prostate cancer cell line” value (C42 cells) was “highly resistant”. The “PTPase activity of immunocomplexes from treated Flag-PRL-3 transfectants” value (intracellular Flag-PRL-3) was “lack of PTPase activity” and the “growth of DU145R clone in comparison to parental DU145” value (DU145R cells) was “growth resistance”.
